The term IC50 denotes the point on the concentration scale where inhibition reaches its midpoint.

Entries after “also recorded” stand apart in the source; their conditions may differ. Where two headings read alike, the source gives them in different places.

Series [1] deals with apomorphine-induced climbing behaviour. The series can be described thus: inhibition test of apomorphine-induced climbing behaviour. The format is in vivo, male Swiss mice. Conditions: Mus musculus, 1 h, read-out: Climbing ID50. As to the method: For the practical performance of this experiment, male Swiss mice weighing 22-24 g were used. One week prior to experiment, animals were kept in our facilities at a temperature of 20-22° C. and 12/12 h light-dark cycle, and had free access to food and water. Two hours prior to experiment, the animals were placed in individual cages without access to food.
Animals were administered orally with test drug or 0.25% agar at time 0. After 60 minutes, apomorphine was subcutaneously injected at a dose of 1 mg/kg, and after further 70 minutes the animal's behaviour was assessed. Two additional assessments were performed at 10-min intervals.
(§1) For assessment, each animal was placed on the bottom of a small upright box ([…]). The walls of the box were made of translucent methacrylate except one of the lateral surfaces (7.5 cm wide) which was a 3-mm wire mesh. The position of the animal was scored for 2 minutes according to the following criteria: 0=four paws on the floor; 1=three paws on the floor; 2=two paws on the floor; 3=one paw on the floor; and 4=four paws holding the wire mesh. If an animal keeps several positions within the 2-min observation, the seconds elapsed in each position will be recorded. Finally, mean scoring was calculated.

The nature of series [2]: catalepsy test (cataleptic activity, oral route). Conditions: rat. Here is the method:
as §1

For the next series, the target named is T1, histamine H1 receptors (Cavia porcellus, UniProt P31389).
T1 construct: incubation of guinea-pig cerebellum membranes; from tissue; host or cells: guinea-pig cerebellum membranes
T1 sequence (P31389 whole entry): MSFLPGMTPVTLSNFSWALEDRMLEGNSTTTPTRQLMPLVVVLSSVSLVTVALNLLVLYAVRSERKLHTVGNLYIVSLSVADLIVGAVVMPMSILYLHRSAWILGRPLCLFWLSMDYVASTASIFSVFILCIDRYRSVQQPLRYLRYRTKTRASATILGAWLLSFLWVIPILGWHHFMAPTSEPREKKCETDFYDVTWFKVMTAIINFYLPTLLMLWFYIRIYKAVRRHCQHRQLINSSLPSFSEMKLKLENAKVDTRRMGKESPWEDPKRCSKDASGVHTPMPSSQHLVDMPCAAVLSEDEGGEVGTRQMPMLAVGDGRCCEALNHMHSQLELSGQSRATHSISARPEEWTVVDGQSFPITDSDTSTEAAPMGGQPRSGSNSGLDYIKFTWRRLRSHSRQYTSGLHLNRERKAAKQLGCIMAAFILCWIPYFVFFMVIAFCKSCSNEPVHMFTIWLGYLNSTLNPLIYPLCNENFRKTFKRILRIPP
The series is described as follows: biochemical. Conditions: for potency as ligand of H1 receptors versus compound of Example 2' of ES 9600323 / potency as ligand of H1 receptors versus promethazine: in words, from Table 2. It counts as binding, guinea-pig. Here is the method:
The bound radioactivity was separated by filtration (Whatman GF/B) in a Brandel Harvester. The amount of receptor-bound radioactivity present in the filters was determined using a Packard 1800TR counter. The specific binding was established with a 1 μM concentration of triprolidine.

Series [3] in a line: therapeutic index (catalepsy ED50 / climbing ID50). Particulars: for selectivity ratio: in vivo, po; for therapeutic index versus compound of Example 2' of ES 9600323 and haloperidol: in words, from Table 3. As to the method:
as §1

A further series addresses D2 receptors (Rattus norvegicus, UniProt P61169). The series can be described thus: specific binding to D2 receptors ([3H]spiperone, rat striatum membrane). Conditions: in words, from Table 1.
For a further series, the target named is T2, 5-HT2A receptors (Rattus norvegicus, UniProt P14842).
T2 construct: membrane corresponding to 1 mg of rat cortex; from tissue; host or cells: rat cortex membrane
T2 sequence (P14842 whole entry): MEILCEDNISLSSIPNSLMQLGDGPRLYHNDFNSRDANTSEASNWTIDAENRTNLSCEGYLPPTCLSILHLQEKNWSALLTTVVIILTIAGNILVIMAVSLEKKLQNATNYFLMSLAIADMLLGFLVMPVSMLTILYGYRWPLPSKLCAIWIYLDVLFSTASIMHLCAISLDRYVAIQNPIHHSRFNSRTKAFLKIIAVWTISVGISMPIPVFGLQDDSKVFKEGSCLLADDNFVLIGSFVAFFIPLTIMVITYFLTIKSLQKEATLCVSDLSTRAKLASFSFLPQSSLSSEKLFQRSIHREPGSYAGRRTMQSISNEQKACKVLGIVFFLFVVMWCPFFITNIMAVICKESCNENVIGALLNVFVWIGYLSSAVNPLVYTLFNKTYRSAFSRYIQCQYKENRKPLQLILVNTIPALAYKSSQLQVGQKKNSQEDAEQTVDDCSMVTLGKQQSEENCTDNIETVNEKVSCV
The series can be described thus: specific binding to 5-HT2A receptors ([3H]ketanserin, rat cortex membrane). Conditions: for IC50: [3H]ketanserin 0.5 nM, rat cortex, 30 min, 35° C., pH 7.4; for potency as ligand of 5-HT2A receptors versus compound of Example 2' of ES 9600323: in words, from Table 1.

Where [4] appears, read: oral, male Swiss mice, apomorphine 1 mg/kg s.c. after 60 minutes.

D2 receptors, sequence (P61169 whole entry): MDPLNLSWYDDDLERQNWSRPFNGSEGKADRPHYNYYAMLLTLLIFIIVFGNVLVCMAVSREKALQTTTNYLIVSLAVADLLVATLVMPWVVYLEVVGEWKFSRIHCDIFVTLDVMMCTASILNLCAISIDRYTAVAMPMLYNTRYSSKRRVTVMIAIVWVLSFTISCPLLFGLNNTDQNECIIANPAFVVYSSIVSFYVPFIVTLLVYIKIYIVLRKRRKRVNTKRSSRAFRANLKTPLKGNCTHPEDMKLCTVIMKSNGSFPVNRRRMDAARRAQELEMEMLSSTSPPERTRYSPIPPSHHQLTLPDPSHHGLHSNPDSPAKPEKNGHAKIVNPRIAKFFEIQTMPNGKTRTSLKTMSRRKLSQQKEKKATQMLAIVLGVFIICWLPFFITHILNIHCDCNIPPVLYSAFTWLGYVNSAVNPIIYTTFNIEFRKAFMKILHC

In the case of `O=C(CCCN1CCC(O)(c2ccc(Cl)cc2)CC1)c1ccc(F)cc1` [Haloperidol, haloperidol, reference compound], the ED50 in series [1] (setting [4]) was 0.32 mg/kg. The compound also returned a TD50 in series [2] (in vivo) of 2 mg/kg.
As to `COCc1coc2cc(OCCCN3CCC(c4noc5cc(F)ccc45)CC3)ccc2c1=O.Cl` [Example 3, 7-[3-[4-(6-fluorobenzo[d]isoxazole-3-yl)piperidin-1-yl]propoxy]-3-methoxymethyl-chromen-4-one hydrochloride], at histamine H1 receptors, the midpoint of inhibition, the IC50, lay at 0.339 nM and the “potency as ligand of H1 receptors versus compound of Example 2' of ES 9600323” value is reported as “more potent”. On histamine H1 receptors (hydrochloride), the “potency as ligand of H1 receptors versus promethazine” value was “of the same order as promethazine; also recorded: greater than that of standard promethazine”. In addition, the ED50 in series [1] (setting [4]) came to 0.21 mg/kg. Besides, in series [3], the selectivity ratio is 32.3; the “therapeutic index versus compound of Example 2' of ES 9600323 and haloperidol” value is listed as “higher therapeutic index”. The TD50 in series [2] (po) amounted to 6.79 mg/kg.
For the compound `Cl.O=C(O)c1coc2cc(OCCCN3CCC(c4noc5cc(F)ccc45)CC3)ccc2c1=O` [Example 2, 7-[3-[4-(6-fluorobenzo[d]isoxazole-3-yl)piperidin-1-yl]propoxy]-4-oxochromene-3-carboxylic acid hydrochloride], at D2 receptors, the “potency as ligand of D2 receptors versus compound of Example 2' of ES 9600323” value is recorded as “more potent”. In addition, at 5-HT2A receptors, the IC50 turned out to be 0.594 nM and the “potency as ligand of 5-HT2A receptors versus compound of Example 2' of ES 9600323” value was “more potent”.
Turning to `Cl.O=c1cc(CO)oc2cc(OCCCN3CCC(c4noc5cc(F)ccc45)CC3)ccc12` [Example 6, 7-[3-[4-(6-fluorobenzo[d]isoxazole-3-yl)piperidin-1-yl]propoxy]-2-(hydroxymethyl)-chromen-4-one hydrochloride], at histamine H1 receptors, the IC50 is 1.01 nM, the “potency as ligand of H1 receptors versus compound of Example 2' of ES 9600323” value was “more potent” and the “potency as ligand of H1 receptors versus promethazine” value is “of the same order as promethazine”. In addition, in series [1] (setting [4]), the ED50 was found to be 5.87 mg/kg. Moreover, in series [3], the selectivity ratio was more than 17; the “therapeutic index versus compound of Example 2' of ES 9600323 and haloperidol” value is recorded as “higher therapeutic index”. In addition, in series [2] (po), the TD50 was more than 100 mg/kg.
With `O=c1c(CO)coc2cc(OCCCN3CCC(c4noc5cc(F)ccc45)CC3)ccc12` [Ex. 2' (ES 9600323), reference compound], the IC50 on histamine H1 receptors ([3H]-pyrilamine 1 nM, guinea-pig cerebellum, 25° C., 60 minutes, read-out: IC50, H1 receptors) worked out at 1.2 nM; at 5-HT2A receptors it was 3.08 nM. Also, the ED50 in series [1] (po) was determined as 0.25 mg/kg. Also, the TD50 in series [2] (in vivo) came out at 3.8 mg/kg.
Consider `O=Cc1coc2cc(OCCCN3CCC(c4noc5cc(F)ccc45)CC3)ccc2c1=O` [Example 1, 7-[3-[4-(6-fluorobenzo[d]isoxazole-3-yl)piperidine-1-yl]propoxy]-3-formyl-chromen-4-one], for which the “potency as ligand of D2 receptors versus compound of Example 2' of ES 9600323” value on D2 receptors is listed as “more potent”. For the same compound, on 5-HT2A receptors, the IC50 was 2.11 nM and the “potency as ligand of 5-HT2A receptors versus compound of Example 2' of ES 9600323” value is “more potent”.
